From patent US20070015741A1, “Novel prodrugs of estradiol” (priority 2005, published 2007)

Test: Stability at 40° C./75% RH, prodrug assayed by HPLC for degradation to parent compound estradiol
Format: physicochemical
Conditions: HPLC assay of prodrug
Experimental: The following is an example of stability for the preferred compound described previously. Stability was conducted at 40° C./75% RH, with the prodrug being assayed at specific time-points for degradation to the parent compound, estradiol. The time-points for stability were T=0 months, T=2 weeks, T=1 month, and T=3 months. The following outlines the conditions utilized for analysis of the prodrug. Analysis was conducted using High-Performance Liquid Chromatography (HPLC). The retention time for estradiol lactate acetate was approximately 9.0 minutes using these conditions. Conditions for HPLC analysis: [table]

Assay (%) T = 0 (T=0 months): 94.45%
Assay (%) T = 1 (T=1 month): 92.77%
Assay (%) T = 2 W (T=2 weeks): 93.47%
Assay (%) T = 3 (T=3 months): 94.3%
Substance: estradiol lactate-acetate
